Test results taken from US8461160B2, “Dihydropyrimidinones” (Hoffmann-La Roche, Inc., priority 2009, dated 2013).

Biological target: T1, BACE2 (Homo sapiens, UniProt Q9Y5Z0)
T1 construct: BACE2 enzyme ectodomain (derived from plasmid “pET17b-T7-hu proBACE2”) was prepared as described in Ostermann et al; T7 tag (N); made in house
T1 sequence (Q9Y5Z0 21-473 limits assumed): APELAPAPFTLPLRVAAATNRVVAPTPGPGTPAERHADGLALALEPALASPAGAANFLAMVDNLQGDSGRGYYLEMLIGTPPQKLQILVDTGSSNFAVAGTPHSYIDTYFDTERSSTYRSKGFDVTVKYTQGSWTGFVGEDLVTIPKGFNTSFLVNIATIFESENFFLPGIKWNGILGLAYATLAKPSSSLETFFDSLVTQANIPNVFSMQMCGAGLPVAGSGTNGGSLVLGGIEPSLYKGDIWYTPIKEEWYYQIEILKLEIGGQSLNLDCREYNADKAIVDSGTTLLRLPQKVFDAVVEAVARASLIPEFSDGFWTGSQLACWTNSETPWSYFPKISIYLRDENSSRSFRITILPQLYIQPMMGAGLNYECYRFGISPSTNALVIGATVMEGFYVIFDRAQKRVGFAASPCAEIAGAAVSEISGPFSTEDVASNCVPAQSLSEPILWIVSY
Experiment: Fluorescent-peptide cleavage assay for BACE2 inhibition
Format: biochemical
Details: BACE2 enzyme ectodomain, fluorescent peptide WS EVNLD AEFRC-MR121, assay buffer pH 4.5, room temperature
Description: Fluorescent-Peptide Cleavage Assay for BACE2 Inhibition
The pro-enzyme was stored at 4° C. at a concentration of 70 μg/ml.
A fluorescent peptide with the amino acid sequence WS EVNLD AEFRC-MR121 was synthesised and a stock solution of 1.5 mM in DMSO prepared and stored at −20° C. MR121 is a fluorophore with an excitation wavelength of 630 nm and emission wavelength of 695 nm. The MR121 fluorescence is quenched by the N-terminal tryptophan until the peptide is cleaved by BACE2.
Assays were all made in a Corning 384-well black polystyrene non-binding surface microtitre plate with clear flat bottom and using a Plate:Vision (Perkin Elmer) fluorescence reader. To perform the assay an 80 nM solution of BACE2 was prepared in assay buffer (assay buffer is 100 mM Na-acetate; 20 mM EDTA; 0.05% BSA; pH 4.5) and incubated at room temperature for 1 hour to activate the enzyme. 39 μl of the activated BACE2 was placed in each assay well, followed by 1 μl compound to be tested at an appropriate concentration in 100% DMSO. The plate was then mixed and incubated for 10 minutes at room temperature.
The assay readout is the rate of change of fluorescence intensity giving a relative measure of BACE2 activity. Small values correspond to high inhibition and larger values to low inhibition. […] IC50 values were determined using these assay values generated for a range of inhibitor concentrations and the curve fitting software XLfit (IDBS) using the Sigmoidal Dose-Response Model.

Row | SMILES | IC50 [nM]
1 | CN1C(=O)C[C@@](C)(c2cncc(NC(=O)c3ccc(Cl)cn3)c2)N=C1N [Example 52, 5-Chloro-pyridine-2-carboxylic acid [5-((S)-2-amino-1,4-dimethyl-6-oxo-1,4,5,6-tetrahydro-pyrimidin-4-yl)-pyridin-3-yl]-amide] | 11
2 | CN1C(=O)C(C)(C)[C@@](C)(c2cc(NC(=O)c3ccc(Cl)cn3)ccc2F)N=C1N [Example 53, 5-Chloro-pyridine-2-carboxylic acid [3-((S)-2-amino-1,4,5,5-tetramethyl-6-oxo-1,4,5,6-tetrahydro-pyrimidin-4-yl)-4-fluoro-phenyl]amide] | 8
3 | CN1C(=O)C[C@@](C)(c2cccc(NC(=O)c3nc(Cl)ccc3Cl)c2)N=C1N [Example 54, 3,6-Dichloro-pyridine-2-carboxylic acid [3-((S)-2-amino-1,4-dimethyl-6-oxo-1,4,5,6-tetrahydro-pyrimidin-4-yl)-phenyl]-amide] | 976
4 | CCCOc1cccnc1C(=O)Nc1cccc([C@]2(C)CC(=O)N(C)C(N)=N2)c1 [Example 55, 3-Propoxy-pyridine-2-carboxylic acid [3-((S)-2-amino-1,4-dimethyl-6-oxo-1,4,5,6-tetrahydro-pyrimidin-4-yl)-phenyl]-amide] | 349
5 | CN1C(=O)C[C@@](C)(c2cccc(NC(=O)c3nccc4ccccc34)c2)N=C1N [Example 56, Isoquinoline-1-carboxylic acid [3-((S)-2-amino-1,4-dimethyl-6-oxo-1,4,5,6-tetrahydro-pyrimidin-4-yl)-phenyl]-amide] | 2980
6 | CN1C(=O)C[C@@](C)(c2cccc(NC(=O)c3cc4ccccc4cn3)c2)N=C1N [Example 57, Isoquinoline-3-carboxylic acid [3-((S)-2-amino-1,4-dimethyl-6-oxo-1,4,5,6-tetrahydro-pyrimidin-4-yl)-phenyl]amide] | 110
7 | CN1C(=O)C[C@@](C)(c2cccc(NC(=O)c3ccc4ccccc4n3)c2)N=C1N [Example 58, Quinoline-2-carboxylic acid [3-((S)-2-amino-1,4-dimethyl-6-oxo-1,4,5,6-tetrahydro-pyrimidin-4-yl)-phenyl]-amide] | 410
8 | CN1C(=O)C[C@@](C)(c2cccc(NC(=O)c3ccc4sccc4n3)c2)N=C1N [Example 59, Thieno[3,2-b]pyridine-5-carboxylic acid [3-((S)-2-amino-1,4-dimethyl-6-oxo-1,4,5,6-tetrahydro-pyrimidin-4-yl)-phenyl]-amide] | 1700
9 | CN1C(=O)C[C@@](C)(c2cccc(NC(=O)c3nccc4ccsc34)c2)N=C1N [Example 60, Thieno[2,3-c]pyridine-7-carboxylic acid [3-((S)-2-amino-1,4-dimethyl-6-oxo-1,4,5,6-tetrahydro-pyrimidin-4-yl)-phenyl]-amide] | 240
10 | CN1C(=O)C[C@@](C)(c2cccc(NC(=O)c3ncccc3Sc3ccccc3)c2)N=C1N [Example 61, 3-Phenylsulfanyl-pyridine-2-carboxylic acid [3-((S)-2-amino-1,4-dimethyl-6-oxo-1,4,5,6-tetrahydro-pyrimidin-4-yl)-phenyl]-amide] | 240
11 | CN1C(=O)C[C@@](C)(c2cccc(NC(=O)c3ncccc3C(F)(F)F)c2)N=C1N [Example 62, 3-Trifluoromethyl-pyridine-2-carboxylic acid [3-((S)-2-amino-1,4-dimethyl-6-oxo-1,4,5,6-tetrahydro-pyrimidin-4-yl)-phenyl]-amide] | 150
12 | CN1C(=O)C[C@@](C)(c2cccc(NC(=O)c3ccc(OCC(F)(F)F)cn3)c2)N=C1N [Example 63, 5-(2,2,2-Trifluoro-ethoxy)-pyridine-2-carboxylic acid [3-((S)-2-amino-1,4-dimethyl-6-oxo-1,4,5,6-tetrahydro-pyrimidin-4-yl)-phenyl]-amide] | 60
13 | CN1C(=O)C[C@@](C)(c2cccc(NC(=O)c3ncc(Cl)cc3Cl)c2)N=C1N [Example 64, 3,5-Dichloro-pyridine-2-carboxylic acid [3-((S)-2-amino-1,4-dimethyl-6-oxo-1,4,5,6-tetrahydro-pyrimidin-4-yl)-phenyl]-amide] | 60
14 | COc1cccnc1C(=O)Nc1cccc([C@]2(C)CC(=O)N(C)C(N)=N2)c1 [Example 65, 3-Methoxy-pyridine-2-carboxylic acid [3-((S)-2-amino-1,4-dimethyl-6-oxo-1,4,5,6-tetrahydro-pyrimidin-4-yl)-phenyl]-amide] | 160
15 | CN1C(=O)C[C@@](C)(c2cccc(NC(=O)c3csc(C(F)(F)F)n3)c2)N=C1N [Example 66, 2-Trifluoromethyl-thiazole-4-carboxylic acid [3-((S)-2-amino-1,4-dimethyl-6-oxo-1,4,5,6-tetrahydro-pyrimidin-4-yl)-phenyl]-amide] | 1550
16 | Cc1nc(C(=O)Nc2cccc([C@]3(C)CC(=O)N(C)C(N)=N3)c2)cs1 [Example 67, 2-Methyl-thiazole-4-carboxylic acid [3-((S)-2-amino-1,4-dimethyl-6-oxo-1,4,5,6-tetrahydro-pyrimidin-4-yl)-phenyl]-amide] | 160
17 | CN1C(=O)C[C@@](C)(c2cccc(NC(=O)c3cc4ccccc4s3)c2)N=C1N [Example 68, Benzo[b]thiophene-2-carboxylic acid [3-((S)-2-amino-1,4-dimethyl-6-oxo-1,4,5,6-tetrahydro-pyrimidin-4-yl)-phenyl]-amide] | 102
18 | CN1C(=O)C[C@@](C)(c2cccc(NC(=O)c3ccn(C)n3)c2)N=C1N [Example 69, 1-Methyl-1H-pyrazole-3-carboxylic acid [3-((S)-2-amino-1,4-dimethyl-6-oxo-1,4,5,6-tetrahydro-pyrimidin-4-yl)-phenyl]-amide] | 61
19 | CN1C(=O)C[C@@](C)(c2cccc(NC(=O)c3ncc(C(F)(F)F)cc3Cl)c2)N=C1N [Example 70, 3-Chloro-5-trifluoromethyl-pyridine-2-carboxylic acid [3-((S)-2-amino-1,4-dimethyl-6-oxo-1,4,5,6-tetrahydro-pyrimidin-4-yl)-phenyl]-amide] | 16
20 | CN1C(=O)C[C@@](C)(c2cccc(NC(=O)c3coc(-c4ccccc4)n3)c2)N=C1N [Example 71, 2-Phenyl-oxazole-4-carboxylic acid [3-((S)-2-amino-1,4-dimethyl-6-oxo-1,4,5,6-tetrahydro-pyrimidin-4-yl)-phenyl]-amide] | 1310
21 | CN1C(=O)C[C@@](C)(c2cccc(NC(=O)c3nc(Cl)ccc3C(F)(F)F)c2)N=C1N [Example 72, 6-Chloro-3-trifluoromethyl-pyridine-2-carboxylic acid [3-((S)-2-amino-1,4-dimethyl-6-oxo-1,4,5,6-tetrahydro-pyrimidin-4-yl)-phenyl]-amide] | 1520
22 | CN1C(=O)C[C@@](C)(c2cccc(NC(=O)c3ccn(CC(F)(F)F)n3)c2)N=C1N [Example 73, 1-(2,2,2-Trifluoro-ethyl)-1H-pyrazole-3-carboxylic acid [3-((S)-2-amino-1,4-dimethyl-6-oxo-1,4,5,6-tetrahydro-pyrimidin-4-yl)-phenyl]-amide] | 2070
23 | CCOc1cc(C(F)(F)F)cnc1C(=O)Nc1cccc([C@]2(C)CC(=O)N(C)C(N)=N2)c1 [Example 74, 3-Ethoxy-5-trifluoromethyl-pyridine-2-carboxylic acid [3-((S)-2-amino-1,4-dimethyl-6-oxo-1,4,5,6-tetrahydro-pyrimidin-4-yl)-phenyl]-amide] | 79
